Data published in patent US6787551B2, “Thiazolidinedione derivatives and pharmaceutical composition comprising the same” (Chong Kun Dang Pharmaceutical Corporation, priority 2002, dated 2004).
Like-named read-outs stand apart in the source and are kept apart here.

What was measured:
[1] = system: differentiated 3T3-L1 cell; test: 2-Deoxy-D-[2,6-3H] glucose uptake assay; type: cell-based; details: differentiated 3T3-L1 cells, 24 h with compound, 0.5 nM insulin, concentration giving 50% of maximum enhancement of insulin activation, read-out: 2-deoxyglucose uptake (EC50 nM)
Protocol: 1) 2-Deoxy-D-[2,6-3H] glucose uptake assay (in differentiated 3T3-L1 cell)
Undifferentiated adipocyte 3T3-L1 cells were inoculated in a 24-well plate and cultivated in a CO2 incubator at 37° C. To induce differentiation of the undifferentiated adipocytes, the cells were then incubated in a differentiation medium. After adding a certain concentration of each of the test compounds to the medium, the cells were again incubated for 24 hours. After removing the medium, the cells were washed with phosphate buffer, and 0.5 nM of insulin in phosphate buffer was added to the washed cells, followed by incubation for 40 minutes. Then, 0.5 uCi of 2-deoxy-D-[2,6-3H] glucose per well was again added to the cells, which were let stand for 4 minutes. Then, the cells were washed with phosphate buffer, and cell lysis buffer was added, so as to dissolve the cell membranes. The cell sample was placed into a liquid scintillation cocktail solution. The radioactivity of the sample was counted by a liquid scintillation counter.

[2] = system: 3T3-L1 cells; test: Triglyceride accumulation assay; type: cell-based; details: 4 days with compound, concentration giving 50% of maximum enhancement of rosiglitazone activation
Protocol: 2) Triglyceride accumulation assay (in 3T3-L1 cells)
Undifferentiated adipocyte 3T3-L1 cells were inoculated in a 24-well plate and cultivated in a CO2 incubator at 37° C. To induce differentiation of the undifferentiated adipocytes, the cells were then incubated in a differentiation medium for 48 hours. After adding a certain concentration of each of the test compounds to the differentiation medium, the cells were again incubated for 4 days. Then, the final cell sample was placed into 200 μl of 2-propanol. The amount of triglyceride in the cells were measured by Triglyceride Kit [YEONGDONG PHARMACEUTICAL CO. LTD., Korea] commercially available.

[3] = system: mice with diabetes (KK/Ay); test: Blood glucose- and blood lipid-lowering action in mice with diabetes; type: in vivo; details: male KK/Ay mice, daily oral administration for 5 days; for Blood glucose (ED25): dose reducing blood glucose by 25%; for Triglyceride (ED25): dose reducing triglyceride by 25%
Protocol: Male mice with diabetes (KK/Ay: 10 weeks old, 5 animals/group) were housed and given free access to water and food. The animals received a daily oral administration of the test compounds for 5 days. After the last dose, a blood sample was drawn via the orbital sinus.
The plasma was analyzed for blood glucose content using the Glucose-E kit (YEONGDONG PHARMACEUTICAL CO. LTD., Korea), and for triglyceride content using the Triglyceride kit (YEONGDONG PHARMACEUTICAL CO. LTD., Korea).

[4] = system: primary cultured rat hepatocytes; test: Cytotoxicity assay in primary cultured rat hepatocytes (neutral red); details: for Safety index (TC25 nM/EC50 nM): TC25 in hepatocyte cytotoxicity assay / EC50 in triglyceride accumulation assay; for Cytotoxicity in hepatocyte (TC25 uM): primary rat hepatocytes, 24 h, neutral red, 25% toxic concentration
Protocol: Hepatocytes isolated from rat were inoculated in a collagen-coated 24 well plate and was incubated in a CO2 incubator at 37° C. for 24 hours. Then, a certain concentration of each of the test compounds was added, and the cells were again incubated for 24 hours. The cells were then incubated in a 0.4% neutral red containing medium for 4 hours and washed once with phosphate buffer. 0.5 ml of a solution of 1% acetic acid-50% ethanol was added to the cells, which were let stand. 200 ul of the cell sample was taken and absorbance was measured at 570 nm. The cytotoxicity assay performed on hepatocytes was measured as 25% toxic concentration (TC25, uM). Then, the safety index, i.e. the TC25 value in the cytotoxicity assay in hepatocyte/the EC50 value in the triglyceride accumulation assay, was calculated.

| Compound | EC50 [1] | EC50 [2] | Blood glucose (ED25) [3] | Triglyceride (ED25) [3] | Safety index (TC25 nM/EC50 nM) [4] | Cytotoxicity in hepatocyte (TC25 uM) [4] | EC50 ([1]; Mus musculus) | EC50 ([2]; Mus musculus, 96 h) |
| --- | --- | --- | --- | --- | --- | --- | --- | --- |
| 5-(4-[2-(N-methyl-N-2-(4-(4-isopropyl)pyridinyl)amino)ethoxy]benzyl)-2,4-thiazolidinedione [Ex. 36] | 20.9 nM | 16.3 nM | 3.5 mg/kg | 14.9 mg/kg | 4663 | 76000 nM | – | – |
| 5-(4-[2-(N-methyl-N-(2-(4-(4-chloro)phenoxy)pyridinyl)amino)ethoxy]benzyl)-2,4-thiazolidinedione [Ex. 34] | 4 nM | 1.5 nM | 1.9 mg/kg | 5.6 mg/kg | 48667 | 73000 nM | – | – |
| 5-(4-[2-(N-methyl-N-(2-(4-(4-fluoro)phenoxy)pyridinyl)amino)ethoxy]benzyl)-2,4-thiazolidinedione [Ex. 33] | 8.9 nM | 5.6 nM | 1.1 mg/kg | 6.5 mg/kg | 17679 | 99000 nM | – | – |
| CN(CCOc1ccc(C=C2SC(=O)NC2=O)cc1)c1cc(Oc2ccccc2)ncn1 [Ex. 1] | 58 nM | 38 nM | 4.0 mg/kg | 30 mg/kg | 2578 | 98000 nM | – | – |
| CN(CCOc1ccc(C=C2SC(=O)NC2=O)cc1)c1cc(Oc2ccc(Cl)cc2)ncn1 [Ex. 5, 5-(4-[2-(N-methyl-N-(6-(4-(4-chloro)phenoxy)pyrimidinyl)amino)ethoxy]benzylidene)-2,4-thiazolidinedione] | 45 nM | 35 nM | 4.0 mg/kg | 28 mg/kg | 2657 | 93000 nM | – | – |
| CCc1ccc(Oc2cc(N(C)CCOc3ccc(C=C4SC(=O)NC4=O)cc3)ncn2)cc1 [Ex. 9, 5-(4-[2-(N-methyl-N-(6-(4-(4-ethyl)phenoxy)pyrimidinyl)amino)ethoxy]benzylidene)-2,4-thiazolidinedione] | 55.2 nM | 29.9 nM | 4.1 mg/kg | 29 mg/kg | 3010 | 90000 nM | – | – |
| CN(CCOc1ccc(C=C2SC(=O)NC2=O)cc1)c1cc(Oc2ccc(-c3ccccc3)cc2)ncn1 [Ex. 12, 5-(4-[2-(N-methyl-N-(6-(4-(4-phenyl)phenoxy)pyrimidinyl)amino)ethoxy]benzylidene)-2,4-thiazolidinedione] | 49.5 nM | 46.8 nM | 4.1 mg/kg | 25 mg/kg | 1816 | 85000 nM | – | – |
| CN(CCOc1ccc(CC2SC(=O)NC2=O)cc1)c1cc(Oc2ccccc2)ncn1 (stereo not drawn) [Ex. 20, 5-(4-[2-(N-methyl-N-(6-(4-phenoxy)pyrimidinyl)amino)ethoxy]benzyl)-2,4-thiazolidinedione] | 7.5 nM | 2.7 nM | 0.22 mg/kg | 1.2 mg/kg | 29630 | 80000 nM | – | – |
| CN(CCOc1ccc(CC2SC(=O)NC2=O)cc1)c1cc(Oc2ccccc2)ccn1 (stereo not drawn) [Ex. 22, 5-(4-[2-(N-methyl-N-(2-(4-phenoxy)pyridinyl)amino)ethoxy]benzyl)-2,4-thiazolidinedione] | 1.8 nM | 0.54 nM | 0.7 mg/kg | 3.9 mg/kg | 137037 | 74000 nM | – | – |
| CN(CCOc1ccc(CC2SC(=O)NC2=O)cc1)c1cc(Oc2ccc(F)cc2)ncn1 (stereo not drawn) [Ex. 23, 5-(4-[2-(N-methyl-N-(6-(4-(4-fluoro)phenoxy)pyrimidinyl)amino)ethoxy]benzyl)-2,4-thiazolidinedione] | 2.4 nM | 0.81 nM | 0.25 mg/kg | 2.2 mg/kg | 87654 | 71000 nM | – | – |
| CN(CCOc1ccc(CC2SC(=O)NC2=O)cc1)c1cc(Oc2ccc(Cl)cc2)ncn1 (stereo not drawn) [Ex. 24, 5-(4-[2-(N-methyl-N-(6-(4-(4-chloro)phenoxy)pyrimidinyl)amino)ethoxy]benzyl)-2,4-thiazolidinedione] | 0.2 nM | 0.1 nM | 0.18 mg/kg | 0.6 mg/kg | 750000 | 75000 nM | – | – |
| COc1ccc(Oc2cc(N(C)CCOc3ccc(CC4SC(=O)NC4=O)cc3)ncn2)cc1 (stereo not drawn) [Ex. 25, 5-(4-[2-(N-methyl-N-(6-(4-(4-methoxy)phenoxy)pyrimidinyl)amino)ethoxy]benzyl)-2,4-thiazolidinedione] | 0.2 nM | 0.11 nM | 0.15 mg/kg | 0.5 mg/kg | 727272 | 80000 nM | – | – |
| CCOc1ccc(Oc2cc(N(C)CCOc3ccc(CC4SC(=O)NC4=O)cc3)ncn2)cc1 (stereo not drawn) [Ex. 26, 5-(4-[2-(N-methyl-N-(6-(4-(4-ethoxy)phenoxy)pyrimidinyl)amino)ethoxy]benzyl)-2,4-thiazolidinedione] | 14.4 nM | 7.7 nM | 0.8 mg/kg | 4.3 mg/kg | 12338 | 95000 nM | – | – |
| CC(C)Oc1ccc(Oc2cc(N(C)CCOc3ccc(CC4SC(=O)NC4=O)cc3)ncn2)cc1 (stereo not drawn) [Ex. 27, 5-(4-[2-(N-methyl-N-(6-(4-(4-isopropoxy)phenoxy)pyrimidinyl)amino)ethoxy]benzyl)-2,4-thiazolidinedione] | 35.5 nM | 21.7 nM | 0.8 mg/kg | 4.5 mg/kg | 3594 | 78000 nM | – | – |
| CCc1ccc(Oc2cc(N(C)CCOc3ccc(CC4SC(=O)NC4=O)cc3)ncn2)cc1 (stereo not drawn) [Ex. 28, 5-(4-[2-(N-methyl-N-(6-(4-(4-ethyl)phenoxy)pyrimidinyl)amino)ethoxy]benzyl)-2,4-thiazolidinedione] | 5.2 nM | 2.1 nM | 1.8 mg/kg | 16.9 mg/kg | 40476 | 85000 nM | – | – |
| CC(C)c1ccc(Oc2cc(N(C)CCOc3ccc(CC4SC(=O)NC4=O)cc3)ncn2)cc1 (stereo not drawn) [Ex. 30, 5-(4-[2-(N-methyl-N-(6-(4-(4-isopropyl)phenoxy)pyrimidinyl)amino)ethoxy]benzyl)-2,4-thiazolidinedione] | 13.3 nM | 6.5 nM | 2.1 mg/kg | 21.2 mg/kg | 11077 | 72000 nM | – | – |
| CN(CCOc1ccc(CC2SC(=O)NC2=O)cc1)c1cc(Oc2ccc(-c3ccccc3)cc2)ncn1 (stereo not drawn) [Ex. 31] | 20.5 nM | 12.5 nM | 3.2 mg/kg | 12.6 mg/kg | 5840 | 73000 nM | – | – |
| COc1ccc(Oc2ccnc(N(C)CCOc3ccc(CC4SC(=O)NC4=O)cc3)c2)cc1 (stereo not drawn) [Ex. 35, 5-(4-[2-(N-methyl-N-(2-(4-(4-methoxy)phenoxy)pyridinyl)amino)ethoxy]benzyl)-2,4-thiazolidinedione] | 19.3 nM | 9.6 nM | 2.5 mg/kg | 9.1 mg/kg | 10000 | 96000 nM | – | – |
| CN(CCOc1ccc(CC2SC(=O)NC2=O)cc1)c1ccccn1 (stereo not drawn) [Rosiglitazone, reference compound] | – | – | 4.1 mg/kg | More than 30 mg/kg | 1489 | 70000 nM | 75 nM | 47 nM |
